In patent US7189505B2, “Methods of assessing HIV integrase inhibitor therapy” (Tibotec BVBA, priority 2001, dated 2007):

Key:
Assay type in all cases: cell-based, HIV-1
[1] = test system: recombinant virus generated from HXB2D site-directed mutant virus, integrase M154I mutation; experiment: Antiviral experiment with recombinant virus from site-directed mutant virus, M154I; conditions: versus wild type, MT4-LTR-EGFP cells
Protocol: (§1) The integrase encoding sequence was amplified from either wildtype HIV-1 (IIIB) or NL4.3 virus, or HXB2D site-directed mutant viruses containing mutations in integrase (such as T66I, S153Y, M154I, or combinations thereof) (Hazuda et al., Science 2000, 287, 646–650), or patient samples. Starting from RNA, extracted from virus supernatant or plasma using the QIAamp® viral RNA extraction kit (Qiagen), cDNA was synthesized by reverse transcription (Expand™ reverse transcriptase, 30 min at 42° C.) with the primer 3′EGINT10 (SEQ ID NO 11), followed by a nested PCR. […]
(§2) Recombinant virus was produced by co-transfection by electroporation of the SmaI-linearized IN-deletion construct and the integrase amplicon into MT4 cells or MT4 cells equipped with an LTR driven reporter gene construct. Production of recombinant virus was evaluated by scoring the cytopathogenic effect (CPE) that is induced by HIV-infection of MT4 cells or by the LTR-driven reporter signal induced by HIV infection in MT4 reporter cells. […]

[2] = test system: recombinant virus generated from HXB2D site-directed mutant virus, integrase T66I/S153Y mutations; experiment: Antiviral experiment with recombinant virus from site-directed mutant virus, T66I/S153Y; conditions: versus wild type, MT4-LTR-EGFP cells
Protocol: as §1, §2

[3] = test system: recombinant virus generated from HXB2D site-directed mutant virus, integrase T66I/M154I mutations; experiment: Antiviral experiment with recombinant virus from site-directed mutant virus, T66I/M154I; conditions: versus wild type, MT4-LTR-EGFP cells
Protocol: as §1, §2

[4] = test system: recombinant virus generated from HXB2D site-directed mutant virus, integrase S153Y; experiment: Antiviral experiment with recombinant virus from site-directed mutant virus, S153Y; conditions: S153Y mutation in integrase; versus wild type; MT4-LTR-EGFP cells
Protocol: as §1, §2

[5] = test system: recombinant virus generated from HXB2D site-directed mutant virus, integrase T66I mutation; experiment: Antiviral experiment with recombinant virus from site-directed mutant virus, T66I; conditions: versus wild type, MT4-LTR-EGFP cells
Protocol: as §1, §2

CC(C)Oc1ccc(Cc2ccccc2)cc1C(=O)CC(=O)C(=O)O [compound 4, 2-(1-methylethyloxy)-, -dioxo-5-(phenylmethyl)-benzenebutanoic acid]
fold increase in EC50 [1]: 3 fold | fold increase in EC50 [2]: 10 fold | fold increase in EC50 [3]: 10 fold | fold increase in EC50 [4]: 5 fold | fold increase in EC50 [5]: 2 fold
